The results in this text go back to ChEMBL document CHEMBL1153818, “Integration of ligand and structure-based virtual screening for the identification of the first dual targeting agent for heat shock protein 90 (Hsp90) and tubulin” (J Med Chem, 2009).

The source made the active and inactive calls. No cut-off for these calls is given here.

The subject of assay [1] is MCF7. Description: Induction of ERalpha degradation in human MCF7 cells at 200 uM after 24 hrs by Western blot analysis. The assay is classed as functional, cell-based. (In western blotting, separated proteins are transferred to a membrane and probed.)
Assay [2] has as its target Heat shock protein HSP 90-beta (Homo sapiens, UniProt P08238). Description: Inhibition of Hsp90 by FP ATP-site binding assay.
A further assay is filed under the species Bos taurus. Put plainly: Inhibition of bovine tubulin polymerization.
The subject of assay [3] is MCF7. Put plainly: Induction of ERalpha degradation in human MCF7 cells at 1 uM after 24 hrs by Western blot analysis. The format is functional, cell-based.

Chain of Heat shock protein HSP 90-beta (P08238 whole entry): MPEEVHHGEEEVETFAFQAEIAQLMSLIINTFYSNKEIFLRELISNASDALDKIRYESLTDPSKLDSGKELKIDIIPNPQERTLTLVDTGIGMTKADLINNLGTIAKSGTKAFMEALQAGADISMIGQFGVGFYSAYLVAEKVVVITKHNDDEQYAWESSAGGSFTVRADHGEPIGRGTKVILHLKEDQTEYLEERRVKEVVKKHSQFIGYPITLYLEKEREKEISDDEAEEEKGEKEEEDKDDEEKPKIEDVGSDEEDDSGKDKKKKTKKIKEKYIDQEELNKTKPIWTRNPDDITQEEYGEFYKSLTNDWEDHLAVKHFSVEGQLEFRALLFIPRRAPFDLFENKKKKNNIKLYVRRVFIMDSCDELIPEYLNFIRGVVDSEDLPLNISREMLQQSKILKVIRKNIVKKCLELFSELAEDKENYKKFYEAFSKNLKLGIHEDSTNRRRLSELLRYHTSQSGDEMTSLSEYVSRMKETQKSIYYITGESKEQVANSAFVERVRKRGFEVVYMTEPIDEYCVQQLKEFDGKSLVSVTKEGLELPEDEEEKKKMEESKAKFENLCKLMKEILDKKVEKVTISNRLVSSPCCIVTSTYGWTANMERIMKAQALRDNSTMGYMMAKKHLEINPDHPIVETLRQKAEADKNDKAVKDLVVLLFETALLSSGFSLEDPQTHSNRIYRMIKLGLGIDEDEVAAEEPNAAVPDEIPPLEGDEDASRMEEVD

In general, IC50 refers to the concentration needed to halve the response being measured. Low readings indicate higher potency, high ones lower potency. On to `COc1cc(C(=O)n2ncc3cc(N)ccc32)cc(OC)c1OC`, for which the outcome with MCF7 [1] was Active. In assay [2], this compound registered an IC50 of 80.8 µM. The Activity result in the assay filed under Bos taurus is “Dose-dependent effect”.
With `C=CCNC1=C2C[C@@H](C)C[C@H](OC)[C@H](O)[C@@H](C)/C=C(\C)[C@H](OC(N)=O)[C@@H](OC)/C=C\C=C(/C)C(=O)NC(=CC1=O)C2=O`, in the assay on MCF7 [3], the outcome was Active.
